Reference: patent publication US9593123B2, “Triazolo[4,5-D]pyrimidine derivatives” (Hoffmann-La Roche Inc., priority 2013, dated 2017)
pEC50: −log10 of the molar value.

What was measured:
human CB1 receptor = human CB1 receptor (Homo sapiens (Human), UniProt P21554); test: cAMP assay, CHO cells expressing human CB1 receptors; format: cell-based; details: functional cAMP assay, read-out: CB1 hcAMP EC50
Procedure, shortened: (§1)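 CHO-hCB1/hCB2 cells, KRB + 1 mM IBMX preincubation 30 min 30 °C; cpd 30 min 30 °C; lysis + TR-FRET cAMP detection, 2 h RT; cAMP from std curve; EC50.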

human CB2 receptor = human CB2 receptor (Homo sapiens (Human), UniProt P34972); test: cAMP assay, CHO cells expressing human CB2 receptors; format: cell-based; details: functional cAMP assay, read-out: CB2 hcAMP EC50
Chain of human CB2 receptor (P34972 whole entry): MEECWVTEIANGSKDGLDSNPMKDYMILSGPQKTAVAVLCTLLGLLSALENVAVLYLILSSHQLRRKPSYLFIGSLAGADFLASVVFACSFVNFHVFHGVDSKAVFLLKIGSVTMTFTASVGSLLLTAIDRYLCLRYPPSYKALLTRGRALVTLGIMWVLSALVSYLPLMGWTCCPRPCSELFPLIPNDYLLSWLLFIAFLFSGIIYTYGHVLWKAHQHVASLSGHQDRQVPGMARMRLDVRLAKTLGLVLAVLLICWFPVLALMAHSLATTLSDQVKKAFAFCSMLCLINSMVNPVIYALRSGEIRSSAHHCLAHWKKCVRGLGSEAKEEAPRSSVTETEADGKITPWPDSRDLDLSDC
Procedure, shortened: as §1

Chain of human CB1 receptor (P21554 whole entry): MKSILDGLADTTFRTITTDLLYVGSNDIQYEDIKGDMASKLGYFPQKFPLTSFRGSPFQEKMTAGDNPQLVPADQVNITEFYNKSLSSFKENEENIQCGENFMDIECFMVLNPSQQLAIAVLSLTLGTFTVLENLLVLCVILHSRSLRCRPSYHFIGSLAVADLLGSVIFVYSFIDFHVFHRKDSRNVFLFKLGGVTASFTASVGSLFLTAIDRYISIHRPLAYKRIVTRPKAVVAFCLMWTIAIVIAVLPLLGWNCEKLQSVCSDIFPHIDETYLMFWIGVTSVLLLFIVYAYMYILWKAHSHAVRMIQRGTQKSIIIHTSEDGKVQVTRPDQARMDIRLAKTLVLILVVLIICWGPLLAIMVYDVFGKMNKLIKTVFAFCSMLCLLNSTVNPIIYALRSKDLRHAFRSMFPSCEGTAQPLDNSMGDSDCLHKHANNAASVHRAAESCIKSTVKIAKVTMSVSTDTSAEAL

SMILES	pEC50 (human CB1 receptor)	pEC50 (human CB2 receptor)
CC(=O)N[C@H]1CCN(c2nc(OCC(C)(C)C)nc3c2nnn3Cc2ncccc2Cl)C1 [Example 78, N-[(3S)-1-[3-[(3-Chloropyridin-2-yl)methyl]-5-(2,2-dimethylpropoxy)triazolo[4,5-d]pyrimidin-7-yl]pyrrolidin-3-yl]acetamide]	< 5.00	6.78
CC(=O)N[C@H]1CCN(c2nc(OCC(C)(C)C)nc3c2nnn3Cc2nonc2C)C1 [Example 79, N-[(3S)-1-[5-(2,2-Dimethylpropoxy)-3-[(4-methyl-1,2,5-oxadiazol-3-yl)methyl]triazolo [4,5-d]pyrimidin-7-yl]pyrrolidin-3-yl]acetamide]	< 5.00	7.14
CC(=O)N[C@H]1CCN(c2nc(O[C@@H](C)C(F)(F)F)nc3c2nnn3Cc2ccccc2Cl)C1 [Example 80, N-[(3S)-1-[3-[(2-Chlorophenyl)methyl]-5-[(2S)-1,1,1-trifluoropropan-2-yl]oxytriazolo [4,5-d]pyrimidin-7-yl]pyrrolidin-3-yl]acetamide]	< 5.00	6.80
CCSc1nc(N2CCC(F)(F)C2)c2nnn(Cc3ccccc3Cl)c2n1 [Example 82, 3-[(2-Chlorophenyl)methyl]-7-(3,3-difluoropyrrolidin-1-yl)-5-ethylsulfanyltriazolo [4,5-d]pyrimidine]	6.74	9.15
FC(F)(F)CSc1nc(N2CCC(F)(F)C2)c2nnn(Cc3ccccc3Cl)c2n1 [Example 83, 3-[(2-Chlorophenyl)methyl]-7-(3,3-difluoropyrrolidin-1-yl)-5-(2,2,2-trifluoroethylsulfanyl)triazolo[4,5-d]pyrimidine]	< 5.00	8.72
CC(C)Sc1nc(N2CCC(F)(F)C2)c2nnn(Cc3ccccc3Cl)c2n1 [Example 84, 3-[(2-Chlorophenyl)methyl]-7-(3,3-difluoropyrrolidin-1-yl)-5-propan-2-ylsulfanyltriazolo[4,5-d]pyrimidine]	7.10	8.64
CC(C)(C)Sc1nc(N2CCC(F)(F)C2)c2nnn(Cc3ccccc3Cl)c2n1 [Example 85, 5-tert-Butylsulfanyl-3-[(2-chlorophenyl)methyl]-7-(3,3-difluoropyrrolidin-1-yl)triazolo[4,5-d]pyrimidine]	6.97	9.05
CCS(=O)(=O)c1nc(N2CCC(F)(F)C2)c2nnn(Cc3ccccc3Cl)c2n1 [Example 86, 3-[(2-Chlorophenyl)methyl]-7-(3,3-difluoropyrrolidin-1-yl)-5-ethylsulfonyltriazolo [4,5-d]pyrimidine]	< 5.00	7.06
O=S(=O)(Cc1ccccc1)c1nc(N2CCC(F)(F)C2)c2nnn(Cc3ccccc3Cl)c2n1 [Example 87, 5-Benzylsulfonyl-3-[(2-chlorophenyl)methyl]-7-(3,3-difluoropyrrolidin-1-yl)triazolo [4,5-d]pyrimidine]	< 5.00	7.08
CC(C)S(=O)(=O)c1nc(N2CCC(F)(F)C2)c2nnn(Cc3ccccc3Cl)c2n1 [Example 88, 3-[(2-Chlorophenyl)methyl]-7-(3,3-difluoropyrrolidin-1-yl)-5-propan-2-ylsulfonyltriazolo[4,5-d]pyrimidine]	< 5.00	8.77
OCCSc1nc(N2CCC(F)(F)C2)c2nnn(Cc3ccccc3Cl)c2n1 [Example 89, 2-[3-[(2-Chlorophenyl)methyl]-7-(3,3-difluoropyrrolidin-1-yl)triazolo[4,5-d]pyrimidin-5-yl]sulfanylethanol]	< 5.00	8.13
CC(O)CSc1nc(N2CCC(F)(F)C2)c2nnn(Cc3ccccc3Cl)c2n1 (centres unmarked) [Example 90, 1-[3-[(2-Chlorophenyl)methyl]-7-(3,3-difluoropyrrolidin-1-yl)triazolo[4,5-d]pyrimidin-5-yl]sulfanylpropan-2-ol]	< 5.00	7.81
CCCCSc1nc(N2CCC(F)(F)C2)c2nnn(Cc3ccccc3Cl)c2n1 [Example 91, 5-Butylsulfanyl-3-[(2-chlorophenyl)methyl]-7-(3,3-difluoropyrrolidin-1-yl)triazolo [4,5-d]pyrimidine]	< 5.00	8.16
CC(C)CSc1nc(N2CCC(F)(F)C2)c2nnn(Cc3ccccc3Cl)c2n1 [Example 92, 3-[(2-Chlorophenyl)methyl]-7-(3,3-difluoropyrrolidin-1-yl)-5-(2-methylpropylsulfanyl)triazolo[4,5-d]pyrimidine]	< 5.00	8.60
CCCCS(=O)(=O)c1nc(N2CCC(F)(F)C2)c2nnn(Cc3ccccc3Cl)c2n1 [Example 93, 5-Butylsulfonyl-3-[(2-chlorophenyl)methyl]-7-(3,3-difluoropyrrolidin-1-yl)triazolo [4,5-d]pyrimidine]	< 5.00	8.06
CC(C)CS(=O)(=O)c1nc(N2CCC(F)(F)C2)c2nnn(Cc3ccccc3Cl)c2n1 [Example 94, 3-[(2-Chlorophenyl)methyl]-7-(3,3-difluoropyrrolidin-1-yl)-5-(2-methylpropylsulfonyl)triazolo[4,5-d]pyrimidine]	< 5.00	8.55
CC(O)CS(=O)(=O)c1nc(N2CCC(F)(F)C2)c2nnn(Cc3ccccc3Cl)c2n1 (centres unmarked) [Example 95, 1-[3-[(2-Chlorophenyl)methyl]-7-(3,3-difluoropyrrolidin-1-yl)triazolo[4,5-d]pyrimidin-5-yl]sulfonylpropan-2-ol]	< 5.00	7.19
COCCS(=O)(=O)c1nc(N2CCC(F)(F)C2)c2nnn(Cc3ccccc3Cl)c2n1 [Example 96, 3-[(2-Chlorophenyl)methyl]-7-(3,3-difluoropyrrolidin-1-yl)-5-(2-methoxyethylsulfonyl)triazolo[4,5-d]pyrimidine]	< 5.00	8.29
CC(=O)N[C@H]1CCN(c2nc(NC(C)(C)C)nc3c2nnn3Cc2ccccc2Cl)C1 [Example 97, N-[(3S)-1-[5-(tert-butylamino)-3-[(2-chlorophenyl)methyl]triazolo[4,5-d]pyrimidin-7-yl]pyrrolidin-3-yl]acetamide]	< 5.00	7.42
